Measurements taken from patent publication US11419834B2, “Methods for treating diseases or infections caused by or associated with H. pylori using a halogenated salicylanilide” (Rhode Island Hospital, priority 2019, dated 2022).
Converted amounts (≈) assume the structure as drawn. Read-outs that look alike come from different tables or passages of the source.

How the values were obtained:
[1] = tested on: AGS cells invaded by H. pylori; test: Invasion, gentamicin protection assay; assay type: cell-based, Helicobacter pylori; details: 0.1 μg/mL, 20 hours, AGS cells
Experimental: (§1) The AGS (Gastric adenocarcinoma cell lines) cell line was used to examine inhibition of adhesion and invasion of H. pylori (strain 60190) by niclosamide, as described by Schmitt et al. (Front Cell Infect Microbiol. 2013; 3:93). The AGS cells were grown in Dulbecco's Modified Eagle Medium (DMEM, ex. Gibco), supplemented with 10% fetal bovine serum (Gibco) and 1% penicillin/streptomycin (Gibco) and maintained at 37° C. in 5% C02. Then, 5×10^5 cells in antibiotic and serum-free DMEM were seeded in 6-well plates 24 hours prior to infection. H. pylori bacteria at a multiplicity of infection (MOI)=100 were added and allowed to adhere to the surface of the AGS cells. Planktonic bacteria were removed after 2 hours and DMEM with niclosamide (2×MIC) was then added to the wells containing the AGS. The mammalian cells were lysed by 0.1% saponin after 20 hours of incubation and the adhered bacteria were then serially diluted, plated in Brucella agar supplemented with 10% FBS, and incubated as described above. A control arm of DMSO and a comparator using amoxicillin at a concentration of 0.1 μg/mL (10×MIC) was also assessed. […]

[2] = tested on: H. pylori (strain 60190) adhered to AGS cells; test: Adhesion of H. pylori to AGS cells; assay type: cell-based, Helicobacter pylori; details: 0.1 μg/mL (10×MIC)
Experimental: as §1

H. pylori bacteria = test: Scanning electron microscopy of morphology; assay type: cell-based, Helicobacter pylori
[3] = tested on: IL-8 secretion from MKN-28 cells co-cultured with H. pylori; test: IL-8 secretion, real-time RT-PCR; assay type: cell-based; details: 10× MIC, H. pylori infected MKN-28 cells
Experimental: Real-Time (RT-PCR) was carried out to determine whether niclosamide has an inhibitory role in IL-8 secretion. MKN-28 cells were co-cultured with H. pylori (MOI=100) in the presence or absence of a test compound. At 24 hours, RNA was isolated from the infected host cells. cDNA was synthesized using the Verso cDNA (Invitrogen) synthesis kit according to manufacturer instructions. Quantitative real-time reactions were carried out in a Bio-Rad iTaq universal SYBR (Bio-Rad, Hercules, Calif. USA) one-step kit and a CFX98 real-time PCR cycler as described by Zheng et al. (Future Med. Chem. 2018, February; 10(3):283-296). The relative gene expression was calculated from Cq values using a ΔΔCq method.

H. Pylori 49503 = test: Broth microdilution assay, MIC; assay type: cell-based; details: Helicobacter pylori; strain H. Pylori 49503
H. Pylori 51932 = test: Broth microdilution assay, MIC; assay type: cell-based; details: Helicobacter pylori; strain H. Pylori 51932
H. pylori strain 60190 = test: Minimum bactericidal concentration (plating from MIC assay); assay type: cell-based, Helicobacter pylori
H. pylori (strain 60190) [4] = test: Checkerboard synergy assay (FICI); assay type: cell-based, Helicobacter pylori; details: for FICI value Niclosamide: test compound in combination with niclosamide
Experimental: References to “synergy” of the halogenated salicylanilide with other therapeutic agents described herein refer to an activity which is greater than the sum of the individual agents used alone. The degree of antimicrobial synergy may be assessed by calculating the fractional inhibitory concentration index (FICI) using the checkerboard assay described in the Examples herein. For two agents A and B, the FICI is calculated as: FICI=MICA-B in combination/(MICA alone+MICB alone) Synergy occurs when the FICI is ≤0.5; partial synergy for 0.5≤FICI≤1.0; no interaction […]; and antagonism FICI >4.0.
Antibacterial synergy was tested using the checkerboard assay using the method described in Zheng Z et al. (Antimicrob. Agents Chemother. 2017 July; 61(7)).
Niclosamide was combined with antibiotics and proton pump inhibitors (PPIs). Cultures of H. pylori (strain 60190) were adjusted to OD600=0.06 and added to compound pairs that had been serially diluted in the same 96-well plates, vertically for one compound and horizontally for the other. Assays were carried out in triplicate as described in the antibacterial susceptibility assay described above. The combinatorial inhibitory concentration was indicated by the fractional inhibitory concentration index (FICI): FICI=MICA combination/MICA alone+MICB combination/MICB alone Paired combinations of compounds and their observed FICI are listed in Table 4. Synergistic activity, where the combined antibacterial effect of the 2 antimicrobial agents is more than the sum of their effects alone, is defined by FICI 0.5, antagonism by FICI >4.0 and ‘no interaction’ by FICI >0.5-4.0.

[5] = tested on: H. pylori reference strain 60190 (ATCC 49503); test: Broth microdilution assay, MIC; assay type: cell-based; details: Helicobacter pylori, ATCC49503, 72 h; H. pylori strain 60190; Müller-Hinton broth + 10% FBS, 3 days
H. Pylori 43504 = test: Broth microdilution assay, MIC; assay type: cell-based; details: Helicobacter pylori; strain H. Pylori 43504
[6] = tested on: H. pylori bacteria (strain 60190); test: Multi-step mutation frequency (serial passage resistance study); assay type: cell-based, Helicobacter pylori; details: for increase in MIC during continuous passage: passaged sequentially over 30 days
Experimental: To determine whether H. pylori can develop resistance against niclosamide, bacterial cells were suspended in MHB with 10% FBS at OD600=0.06 in the presence of serially diluted niclosamide and incubated, as described in the antibiotic susceptibility assays sub-section. The standard antibiotics amoxicillin and clarithromycin were used as controls. From the highest drug concentration allowing visible growth at sub-MIC concentration, aliquots were diluted (1:40) into fresh medium. These were used to inoculate the second set of serial drug dilutions as described by Dalhoff et al. (Clin Infect Ds. 2001 Mar. 15; 32 Suppl, 1:S16-22). After a 3-day incubation, H. pylori bacteria (strain 60190) were passaged sequentially over 30 days and the OD was recorded.

H. pylori (strain 60190) [7] = test: Effect of pH on MIC (broth microdilution); assay type: cell-based, Helicobacter pylori; details: pH 7.0 to 5.2
Experimental: The pH was adjusted to acidic condition with 1 N HCl. The minimal bactericidal concentration (MBC) was determined by plating 5 μL of broth culture from the MIC assay onto Müller-Hinton agar (BD Biosciences) supplemented with 10% FBS. After 72 h, the lowest concentration at which colonies were not observed was reported as the MBC.

[8] = Helicobacter pylori, H. pylori strain 60190, read-out: MBC

SMILES: CC1(C)S[C@@H]2[C@H](NC(=O)[C@H](N)c3ccc(O)cc3)C(=O)N2[C@H]1C(=O)O [Amoxicillin, amoxicillin]
- effect on intracellular bacteria [1]: eliminated bacteria completely
- effect on bacterial adhesion [2]: eliminated bacterial adhesion completely
- morphology by SEM (H. pylori bacteria; 0.1 μg/mL (10×MIC)): morphological changes and decreased cell size
- effect on IL-8 secretion [3]: inhibited IL-8 secretion
- MIC (H. Pylori 49503): 0.01 µg/mL (≈ 0.0274 µM)
- MIC (H. Pylori 51932): 0.01 µg/mL (≈ 0.0274 µM)
- MBC (H. pylori strain 60190; [8]): 0.5 µg/mL (≈ 1.37 µM)
- FICI value Niclosamide (H. pylori (strain 60190) [4]): 2.0
- MIC [5]: 0.01 µg/mL
- MIC (H. Pylori 43504): 0.03 µg/mL (≈ 0.0821 µM)
- change in MIC through at least 10 passages [6]: 2 fold
- increase in MIC during continuous passage [6]: 2 fold
- change of MIC at acidic pH compared to pH 7.0 (H. pylori (strain 60190) [7]): increased

SMILES: N#CC(C#N)=NNc1cccc(Cl)c1 [CCCP, carbonyl cyanide m-chlorophenylhydrazone]
- morphology by SEM (H. pylori bacteria; 10 μM): morphological changes and decreased cell size

SMILES: CC[C@H]1OC(=O)[C@H](C)[C@@H](O[C@H]2C[C@@](C)(OC)[C@@H](O)[C@H](C)O2)[C@H](C)[C@@H](O[C@@H]2O[C@H](C)C[C@H](N(C)C)[C@H]2O)[C@](C)(OC)C[C@@H](C)C(=O)[C@H](C)[C@@H](O)[C@]1(C)O [Clarithromycin, clarithromycin]
- MIC (H. Pylori 49503): 0.0025 µg/mL (≈ 0.00334 µM)
- MIC (H. Pylori 51932): 0.005 µg/mL (≈ 0.00668 µM)
- MBC (H. pylori strain 60190; [8]): 0.25 µg/mL (≈ 0.334 µM)
- FICI value Niclosamide (H. pylori (strain 60190) [4]): 1.0
- MIC [5]: 0.0025 µg/mL
- MIC (H. Pylori 43504): 0.005 µg/mL (≈ 0.00668 µM)
- change in MIC through at least 10 passages [6]: 2 fold
- exposure time after which MIC increased ([6]; continuous exposure, 30 day study): > 24 days
- increase in MIC during continuous passage [6]: 4 fold
- change of MIC at acidic pH compared to pH 7.0 (H. pylori (strain 60190) [7]): increased

SMILES: Cc1cc(C(C#N)c2ccc(Cl)cc2)c(Cl)cc1NC(=O)c1cc(I)cc(I)c1O (stereo not shown) [Closantel, closantel]
- MBC (H. pylori strain 60190; H. pylori strain 60190): 16.0 µg/mL (≈ 24.1 µM)
- MBC (H. pylori strain 60190; [8]): 16 µg/mL (≈ 24.1 µM)
- MIC [5]: 16 µg/mL

SMILES: Cc1ncc([N+](=O)[O-])n1CCO [Metronidazole, metronidazole]
- interaction with niclosamide (H. pylori (strain 60190) [4]; combination with niclosamide): partially synergistic
- FICI value Niclosamide (H. pylori (strain 60190) [4]): 0.75

SMILES: COc1ccc2[nH]c([S+]([O-])Cc3ncc(C)c(OC)c3C)nc2c1 (stereo not shown) [Omeprazole, omeprazole]
- FICI value Niclosamide (H. pylori (strain 60190) [4]): 0.625

SMILES: O=C(Nc1cc(Cl)cc(Cl)c1O)c1c(O)c(Cl)cc(Cl)c1Cl [Oxyclozanide, oxyclozanide]
- MBC (H. pylori strain 60190; [8]): 4 µg/mL (≈ 9.96 µM)
- MIC [5]: 2 µg/mL

SMILES: COc1ccnc(C[S+]([O-])c2nc3ccc(OC(F)F)cc3[nH]2)c1OC (stereo not shown) [Pantoprazole, pantoprazole]
- FICI value Niclosamide (H. pylori (strain 60190) [4]): 0.75

SMILES: O=C(Nc1ccc(Oc2ccc(Cl)cc2)c(Cl)c1)c1cc(I)cc(I)c1O [Rafoxanide, rafoxanide]
- MBC (H. pylori strain 60190; Helicobacter pylori, 60190): 8 µg/mL (≈ 12.8 µM)
